Blank lines part the entries; values can stand above or below the compound they belong to.
Tests used:
Dihydrofolate reductase [1] = target: T1, Dihydrofolate reductase (Rattus norvegicus, UniProt Q920D2)
T1 sequence (Q920D2 whole entry): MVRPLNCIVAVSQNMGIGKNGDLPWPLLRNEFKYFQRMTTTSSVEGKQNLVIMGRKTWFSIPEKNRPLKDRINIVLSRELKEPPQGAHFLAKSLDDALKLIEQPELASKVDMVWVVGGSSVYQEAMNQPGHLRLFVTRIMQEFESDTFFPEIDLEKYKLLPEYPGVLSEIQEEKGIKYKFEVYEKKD

[2] = target: T2, Bifunctional dihydrofolate reductase-thymidylate synthase (Toxoplasma gondii, UniProt Q07422)
T2 sequence (Q07422 whole entry): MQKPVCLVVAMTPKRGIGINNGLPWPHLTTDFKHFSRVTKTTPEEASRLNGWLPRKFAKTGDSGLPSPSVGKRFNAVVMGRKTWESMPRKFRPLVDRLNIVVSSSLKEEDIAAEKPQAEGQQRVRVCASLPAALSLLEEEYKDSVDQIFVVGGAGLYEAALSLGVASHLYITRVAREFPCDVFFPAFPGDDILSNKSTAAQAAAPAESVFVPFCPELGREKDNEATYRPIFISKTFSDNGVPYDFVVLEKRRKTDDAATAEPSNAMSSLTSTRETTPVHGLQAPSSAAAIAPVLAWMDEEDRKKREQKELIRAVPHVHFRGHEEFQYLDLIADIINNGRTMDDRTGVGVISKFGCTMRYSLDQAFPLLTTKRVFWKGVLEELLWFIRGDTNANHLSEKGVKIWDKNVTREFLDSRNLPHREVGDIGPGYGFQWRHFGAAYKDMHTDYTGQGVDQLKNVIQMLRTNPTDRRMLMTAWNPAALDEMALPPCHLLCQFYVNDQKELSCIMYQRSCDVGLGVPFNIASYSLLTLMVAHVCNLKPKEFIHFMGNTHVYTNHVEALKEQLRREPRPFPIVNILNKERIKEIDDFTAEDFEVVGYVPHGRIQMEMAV

Dihydrofolate reductase [3] = target: T3, Dihydrofolate reductase (Pneumocystis carinii, UniProt P16184)
T3 sequence (P16184 whole entry): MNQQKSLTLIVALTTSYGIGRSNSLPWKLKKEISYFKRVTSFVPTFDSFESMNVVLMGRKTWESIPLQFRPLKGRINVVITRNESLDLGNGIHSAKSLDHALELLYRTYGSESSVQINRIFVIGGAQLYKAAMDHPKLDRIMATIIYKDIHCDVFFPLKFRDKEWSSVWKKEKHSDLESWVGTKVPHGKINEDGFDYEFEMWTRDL
Description: Concentration required to inhibit the Pneumocystis carinii Dihydrofolate reductase by 50% was determined; Range: 0.88-1.2

Dihydrofolate reductase [4] = target: T4, Dihydrofolate reductase (Mycobacterium avium, UniProt O30463)
T4 sequence (O30463 whole entry): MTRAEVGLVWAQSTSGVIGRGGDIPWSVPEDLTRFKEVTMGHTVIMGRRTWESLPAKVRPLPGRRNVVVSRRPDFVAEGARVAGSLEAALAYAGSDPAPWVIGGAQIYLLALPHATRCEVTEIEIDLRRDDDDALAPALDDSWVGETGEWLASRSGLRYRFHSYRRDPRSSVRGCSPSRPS

Dihydrofolate reductase [5] = target: T4, Dihydrofolate reductase; assay: Concentration required to inhibit the Mycobacterium avium Dihydrofolate reductase by 50% was determined
[6] = Selectivity index was determined by the ratio for IC50 of human DHFR to the IC50 of Mycobacterium avium DHFR
Dihydrofolate reductase [7] = target: T4, Dihydrofolate reductase; remark: listed apart in the source
[8] = target: T2, Bifunctional dihydrofolate reductase-thymidylate synthase; remark: listed apart in the source
Description: Concentration required to inhibit the Toxoplasma gondii Dihydrofolate reductase by 50% was determined; Range: 8.9-11

Dihydrofolate reductase [9] = target: T1, Dihydrofolate reductase; remark: listed apart in the source
Dihydrofolate reductase [10] = target: T3, Dihydrofolate reductase; remark: listed apart in the source
Description: Concentration required to inhibit the Pneumocystis carinii Dihydrofolate reductase by 50% was determined; Range: 0.92-1.3

[11] = Selectivity index was determined by the ratio for IC50 of rat liver DHFR to the IC50 of Mycobacterium avium DHFR; Range: 23-48
[12] = Selectivity index was determined by the ratio for IC50 of rat liver DHFR to the IC50 of Pneumocystis carinii DHFR; Range: 10-17
[13] = Selectivity index was determined by the ratio for IC50 of rat liver DHFR to the IC50 of Toxoplasma gondii DHFR; Range: 10-25
[14] = target: T2, Bifunctional dihydrofolate reductase-thymidylate synthase; remark: listed apart in the source
Description: Concentration required to inhibit the Toxoplasma gondii Dihydrofolate reductase by 50% was determined; Range: 12-24

Dihydrofolate reductase [15] = target: T1, Dihydrofolate reductase; assay: Concentration required to inhibit the rat liver Dihydrofolate reductase by 50% was determined; Range: 250-300
Dihydrofolate reductase [16] = target: T4, Dihydrofolate reductase; remark: listed apart in the source
Description: Concentration required to inhibit the Mycobacterium avium Dihydrofolate reductase by 50% was determined; Range: 6.2-11

Dihydrofolate reductase [17] = target: T3, Dihydrofolate reductase; assay: Concentration required to inhibit the Pneumocystis carinii Dihydrofolate reductase by 50% was determined; Range: 18-25
[18] = Selectivity index was determined by the ratio for IC50 of rat liver DHFR to the IC50 of Mycobacterium avium DHFR
[19] = target: T2, Bifunctional dihydrofolate reductase-thymidylate synthase; assay: Concentration required to inhibit the Toxoplasma gondii Dihydrofolate reductase by 50% was determined; […]
[20] = Selectivity index was determined by the ratio for IC50 of rat liver DHFR to the IC50 of Mycobacterium avium DHFR; […]
Dihydrofolate reductase [21] = target: T3, Dihydrofolate reductase; assay: Concentration required to inhibit the Pneumocystis carinii Dihydrofolate reductase by 50% was determined; Range: 58-110
Dihydrofolate reductase [22] = target: T1, Dihydrofolate reductase; assay: Concentration required to inhibit the rat liver Dihydrofolate reductase by 50% was determined; […]
[23] = Selectivity index was determined by the ratio for IC50 of rat liver DHFR to the IC50 of Toxoplasma gondii DHFR; Range: 53-113
Dihydrofolate reductase [24] = target: T3, Dihydrofolate reductase; remark: listed apart in the source
[25] = Selectivity index was determined by the ratio for IC50 of rat liver DHFR to the IC50 of Mycobacterium avium DHFR; Range: 260-370
[26] = target: T2, Bifunctional dihydrofolate reductase-thymidylate synthase; assay: Concentration required to inhibit the Toxoplasma gondii Dihydrofolate reductase by 50% was determined; Range: 23-30
Dihydrofolate reductase [27] = target: T1, Dihydrofolate reductase; assay: Concentration required to inhibit the rat liver Dihydrofolate reductase by 50% was determined; Range: 370-440
Dihydrofolate reductase [28] = target: T4, Dihydrofolate reductase; assay: Concentration required to inhibit the Mycobacterium avium Dihydrofolate reductase by 50% was determined; Range: 1.2-1.4
[29] = Selectivity index was determined by the ratio for IC50 of rat liver DHFR to the IC50 of Pneumocystis carinii DHFR; Range: 11-16
[30] = Selectivity index was determined by the ratio for IC50 of rat liver DHFR to the IC50 of Toxoplasma gondii DHFR; Range: 12-19
[31] = Selectivity index was determined by the ratio for IC50 of rat liver DHFR to the IC50 of Toxoplasma gondii DHFR
[32] = target: T2, Bifunctional dihydrofolate reductase-thymidylate synthase; assay: Concentration required to inhibit the Toxoplasma gondii Dihydrofolate reductase by 50% was determined
Dihydrofolate reductase [33] = target: T1, Dihydrofolate reductase; assay: Concentration required to inhibit the rat liver Dihydrofolate reductase by 50% was determined
Dihydrofolate reductase [34] = target: T3, Dihydrofolate reductase; assay: Concentration required to inhibit the Pneumocystis carinii Dihydrofolate reductase by 50% was determined; Range: 19-29
[35] = target: T2, Bifunctional dihydrofolate reductase-thymidylate synthase; assay: Concentration required to inhibit the Toxoplasma gondii Dihydrofolate reductase by 50% was determined; Range: 25-30
Dihydrofolate reductase [36] = target: T1, Dihydrofolate reductase; assay: Concentration required to inhibit the rat liver Dihydrofolate reductase by 50% was determined; Range: 1100-1200
[37] = Selectivity index was determined by the ratio for IC50 of rat liver DHFR to the IC50 of Mycobacterium avium DHFR; Range: 250-330
[38] = Selectivity index was determined by the ratio for IC50 of rat liver DHFR to the IC50 of Toxoplasma gondii DHFR; Range: 37-48
[39] = Selectivity index was determined by the ratio for IC50 of rat liver DHFR to the IC50 of Pneumocystis carinii DHFR; Range: 12-63
Dihydrofolate reductase [40] = target: T4, Dihydrofolate reductase; assay: Concentration required to inhibit the Mycobacterium avium Dihydrofolate reductase by 50% was determined; Range: 3.6-4.4
Dihydrofolate reductase [41] = target: T5, Dihydrofolate reductase (Homo sapiens, UniProt P00374); assay: Concentration required to inhibit the human Dihydrofolate reductase by 50% was determined (reported by Hoffman-LaRoche group)
T5 sequence (P00374 whole entry): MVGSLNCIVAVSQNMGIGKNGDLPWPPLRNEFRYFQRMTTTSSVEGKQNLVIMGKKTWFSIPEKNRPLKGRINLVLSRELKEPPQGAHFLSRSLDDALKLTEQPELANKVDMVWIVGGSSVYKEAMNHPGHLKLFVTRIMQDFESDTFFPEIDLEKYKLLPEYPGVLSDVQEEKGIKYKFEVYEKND

Dihydrofolate reductase [42] = target: T5, Dihydrofolate reductase; assay: Concentration required to inhibit the human Dihydrofolate reductase by 50% was determined
[43] = target: T2, Bifunctional dihydrofolate reductase-thymidylate synthase; assay: Concentration required to inhibit the Toxoplasma gondii Dihydrofolate reductase by 50% was determined (reported by Hoffman-LaRoche group)
Dihydrofolate reductase [44] = target: T3, Dihydrofolate reductase; assay: Concentration required to inhibit the Pneumocystis carinii Dihydrofolate reductase by 50% was determined; Range: 9.8-12
[45] = target: T2, Bifunctional dihydrofolate reductase-thymidylate synthase; assay: Concentration required to inhibit the Toxoplasma gondii Dihydrofolate reductase by 50% was determined; Range: 20-23
[46] = Selectivity index was determined by the ratio for IC50 of rat liver DHFR to the IC50 of Toxoplasma gondii DHFR; Range: 55-65
[47] = Selectivity index was determined by the ratio for IC50 of rat liver DHFR to the IC50 of Pneumocystis carinii DHFR; Range: 80-150
[48] = Selectivity index was determined by the ratio for IC50 of rat liver DHFR to the IC50 of Mycobacterium avium DHFR; Range: 140-230
Dihydrofolate reductase [49] = target: T1, Dihydrofolate reductase; assay: Concentration required to inhibit the rat liver Dihydrofolate reductase by 50% was determined; Range: 1100-1500
Dihydrofolate reductase [50] = target: T4, Dihydrofolate reductase; assay: Concentration required to inhibit the Mycobacterium avium Dihydrofolate reductase by 50% was determined; Range: 6.5-8.0

SMILES: Nc1nc(N)c2nc(CN3c4ccccc4C=Cc4cc(OCc5ccc(C(=O)O)cc5)ccc43)cnc2n1
IC50 (Dihydrofolate reductase [1]): 580 nM
IC50 [2]: 22 nM
IC50 (Dihydrofolate reductase [3]): 1 nM
IC50 (Dihydrofolate reductase [4]): 0.75 nM

SMILES: CCCOc1cc(NCc2cnc3nc(N)nc(N)c3c2C)cc(OCCC)c1
IC50 (Dihydrofolate reductase [5]): 0.19 nM
SI [6]: 7300

SMILES: Nc1nc(N)c2nc(CN3c4ccccc4C=Cc4cc(OCCCC(=O)O)ccc43)cnc2n1
IC50 (Dihydrofolate reductase [7]): 2 nM
IC50 [8]: 9.9 nM
IC50 (Dihydrofolate reductase [9]): 1500 nM
IC50 (Dihydrofolate reductase [10]): 1.1 nM

SMILES: Nc1nc(N)c2nc(CN3c4ccccc4C=Cc4cc(OCC(=O)O)ccc43)cnc2n1
SI [11]: 34
SI [12]: 13
SI [13]: 16
IC50 [14]: 17 nM
IC50 (Dihydrofolate reductase [15]): 280 nM
IC50 (Dihydrofolate reductase [16]): 8.2 nM
IC50 (Dihydrofolate reductase [17]): 21 nM

SMILES: CCc1nc(N)nc(N)c1-c1ccc(Cl)c(/N=N/N(CCOC(C)=O)Cc2ccccc2)c1
IC50 (Dihydrofolate reductase [5]): < 1 nM
SI [18]: > 1000

SMILES: Nc1nc(N)c2nc(CN3c4ccccc4C=Cc4ccccc43)cnc2n1
IC50 [19]: 39 nM
SI [20]: 250
IC50 (Dihydrofolate reductase [21]): 79 nM
IC50 (Dihydrofolate reductase [22]): 3000 nM
SI [23]: 77

SMILES: Nc1nc(N)c2nc(CN3c4ccccc4C=Cc4cc(O)ccc43)cnc2n1
IC50 (Dihydrofolate reductase [24]): 31 nM
SI [25]: 320
IC50 [26]: 26 nM
IC50 (Dihydrofolate reductase [27]): 410 nM
IC50 (Dihydrofolate reductase [28]): 1.3 nM
SI [29]: 13
SI [30]: 16

SMILES: COc1ccc(OC)c(CCc2cnc3nc(N)nc(N)c3c2C)c1
SI [31]: 98

IC50 (Dihydrofolate reductase [33]): 250000 nM
SMILES: Nc1nc(N)c2nc(CSc3ccc(Sc4ccccc4)cc3)cnc2n1
IC50 [32]: 770 nM
SI [31]: 320

SMILES: Nc1nc(N)c2nc(CN3c4ccccc4C=Cc4cc(OCCC(=O)O)ccc43)cnc2n1
IC50 (Dihydrofolate reductase [34]): 24 nM
IC50 [35]: 28 nM
IC50 (Dihydrofolate reductase [36]): 1100 nM
SI [37]: 280
SI [38]: 39
SI [39]: 46
IC50 (Dihydrofolate reductase [40]): 4 nM

SMILES: CCOc1cc(Cc2cnc(N)nc2N)cc(OCC)c1-n1cccc1 [EPIROPRIM]
IC50 (Dihydrofolate reductase [41]): 600000 nM
IC50 (Dihydrofolate reductase [5]): 4.1 nM
IC50 (Dihydrofolate reductase [42]): 600000 nM
IC50 [43]: 900 nM
SI [31]: 670

SMILES: Nc1nc(N)c2nc(CN3c4ccccc4C=Cc4cc(OCCCCC(=O)O)ccc43)cnc2n1
IC50 (Dihydrofolate reductase [44]): 11 nM
IC50 [45]: 21 nM
SI [46]: 62
SI [47]: 120
SI [48]: 180
IC50 (Dihydrofolate reductase [49]): 1300 nM
IC50 (Dihydrofolate reductase [50]): 7.2 nM

Source: ChEMBL document CHEMBL1149188, “Synthesis of 2,4-diamino-6-[2'-O-(omega-carboxyalkyl)oxydibenz[b,f]azepin-5-yl]methylpteridines as potent and selective inhibitors of Pneumocystis carinii, Toxoplasma gondii, and Mycobacterium avium dihydrofolate reductase” (J Med Chem, 2004)
